tested on: T.b. brucei (strain 427) bloodstream form parasites; test: T.b. brucei single concentration screen (10 μM); conditions: Trypanosoma brucei, read-out: T.b.brucei % viability (10 µM)

Point of comparison: `CN1CCCN(C(c2ccccc2)c2ccc(Cl)cc2)CC1` (centres unmarked) [MMV004168, CN1CCCN(CC1)C(c2ccccc2)c3ccc(Cl)cc3], viability at 10 µM 55%. Against it:
- CNCCC(Oc1ccc(C(F)(F)F)cc1)c1ccccc1 (centres unmarked) [Compound 33, CNCCC(Oc1ccc(cc1)C(F)(F)F)c2ccccc2] — lower, 2.4%
- CN1CCCC1CCO[C@](C)(c1ccccc1)c1ccc(Cl)cc1 (some centres unmarked) [Compound 62, ClC1=CC=C([C@@](C)(C2=CC=CC=C2)OCCC3N(C)CCC3)C=C1] — lower, 2%
- COc1cccc(-n2nnnc2S(C)(=O)=O)c1 [Compound 63, COc1cccc(c1)n2nnnc2S(=O)(=O)C] — higher, 103%
- CC(C)(C)c1cnc(NC(=O)c2ccccc2O)s1 [Compound 64, CC(C)(C)c1cnc(NC(=O)c2ccccc2O)s1] — higher, 77%
- Nc1nc2cc(-c3cncc(Oc4ccc(F)cc4)c3)ccc2[nH]1 [Compound 65, Nc1nc2ccc(cc2[nH]1)c3cncc(Oc4ccc(F)cc4)c3] — lower, 14%
- O=C(Nc1ccc(N2CCNCC2)cc1)c1ccn2ncc(-c3cccc(Cl)c3)c2n1 [Compound 67, Clc1cccc(c1)c2cnn3ccc(nc23)C(=O)Nc4ccc(cc4)N5CCNCC5] — lower, 1%
- O=C(NCCc1ccccc1)c1cc(-c2cccnc2)cnc1NCC1CC1 [Compound 68, O=C(NCCc1ccccc1)c2cc(cnc2NCC3CC3)c4cccnc4] — higher, 79%
- Cc1[nH]c2ccccc2c1C(c1cccs1)N1CCN(C)CC1 (centres unmarked) [Compound 69, CN1CCN(CC1)C(c2cccs2)c3c(C)[nH]c4ccccc34] — lower, 29%
- O=S(=O)(c1ccc(Cl)cc1)N1CCN(C(=S)NCc2ccco2)CC1 [MMV000858, Clc1ccc(cc1)S(=O)(=O)N2CCN(CC2)C(=S)NCc3occc3] — higher, 97%
- COc1cccc2c(C)nc(N=C(N)N)nc12 [MMV000907, COc1cccc2c(C)nc(N=C(N)N)nc12] — higher, 79%
- CCCS(=O)(=O)N1CCC(CO)(Cc2ccccc2C(F)(F)F)CC1 [MMV001059, CCCS(=O)(=O)N1CCC(CO)(Cc2ccccc2C(F)(F)F)CC1] — higher, 87%
- COC(=O)C1=C(C)NC(C)=C(C(=O)OC(C)C)C1c1cccc2nonc12 (centres unmarked) [MMV001493, COC(=O)C1=C(C)NC(=C(C1c2cccc3nonc23)C(=O)OC(C)C)C] — higher, 97%
- O=C1Nc2ccc(Br)cc2C12NCCc1c2[nH]c2ccccc12 (centres unmarked) [MMV006239, Brc1ccc2NC(=O)C3(NCCc4c3[nH]c5ccccc45)c2c1] — higher, 106%
- Cc1ccc2[nH]c3c(NCCN(C)C)ncnc3c2c1 [MMV006372, CN(C)CCNc1ncnc2c3cc(C)ccc3[nH]c12] — higher, 86%
- COc1cc2ncnc(NC3CCN(Cc4ccccc4)CC3)c2cc1OC [MMV006741, COc1cc2ncnc(NC3CCN(Cc4ccccc4)CC3)c2cc1OC] — higher, 103%
- Cc1cc(Cl)c(S(=O)(=O)N2CCCC2)cc1OCC(=O)NC1CCCCC1 [MMV006833, Cc1cc(Cl)c(cc1OCC(=O)NC2CCCCC2)S(=O)(=O)N3CCCC3] — higher, 98%
- Cc1cc(NC(=O)c2ccc(S(=O)(=O)N(Cc3ccccc3)C(C)C)cc2)no1 [MMV007133, CC(C)N(Cc1ccccc1)S(=O)(=O)c2ccc(cc2)C(=O)Nc3cc(C)on3] — higher, 98%
- COc1cc(OC)cc(C(=O)NCC2Cc3cc(Cl)cc(-c4ccncc4)c3O2)c1 (centres unmarked) [MMV007471, COc1cc(OC)cc(c1)C(=O)NCC2Cc3cc(Cl)cc(c3O2)c4ccncc4] — higher, 74%
- Cc1cc(C)n(-c2ccc(NC(=O)C3CCN(Cc4cnc(C)s4)CC3)cc2)n1 [MMV007625, Cc1cc(C)n(n1)c2ccc(NC(=O)C3CCN(Cc4cnc(C)s4)CC3)cc2] — higher, 65%
- CCOc1ccc(-c2nc(NC(=O)CS(=O)(=O)c3ccccc3)sc2C)cc1 [MMV007638, CCOc1ccc(cc1)c2nc(NC(=O)CS(=O)(=O)c3ccccc3)sc2C] — higher, 73%
- O=C(NC1CC1)c1ccc(CSCc2ccccc2Cl)o1 [MMV007803, Clc1ccccc1CSCc2oc(cc2)C(=O)NC3CC3] — higher, 101%
- Nc1ccc(C(=O)Nc2ccc(-c3nc4ccccc4o3)cc2)cc1 [MMV007920, Nc1ccc(cc1)C(=O)Nc2ccc(cc2)c3oc4ccccc4n3] — higher, 83%
- COc1ccc(CN2CCOc3ccc(C(C)(O)CN(C)C)cc3C2)cc1C (centres unmarked) [MMV008439, COc1ccc(CN2CCOc3ccc(cc3C2)C(C)(O)CN(C)C)cc1C] — higher, 94%
- Cc1cc(C(=O)Nc2cnn(Cc3ccc(Cl)cc3Cl)c2)no1 [MMV009054, Cc1onc(c1)C(=O)Nc2cnn(Cc3ccc(Cl)cc3Cl)c2] — higher, 89%
- O=C(C1CCN(c2nnnn2-c2ccccc2)CC1)N1CCc2ccccc2C1 [MMV009135, O=C(C1CCN(CC1)c2nnnn2c3ccccc3)N4CCc5ccccc5C4] — higher, 94%
- COc1ccc(-c2cnc3ccc(NCc4ccc(S(N)(=O)=O)cc4)nn23)cn1 [MMV010545, COc1ccc(cn1)c2cnc3ccc(NCc4ccc(cc4)S(=O)(=O)N)nn23] — higher, 97%
- c1csc(-c2cnc3sc(NCC4CCOCC4)nn23)c1 [MMV010764, C(Nc1nn2c(cnc2s1)c3cccs3)C4CCOCC4] — higher, 94%
- Cc1cc(Nc2ccc(C(F)(F)F)cc2)n2ccnc2n1 [MMV011229, CC1=NC2=NC=CN2C(NC3=CC=C(C(F)(F)F)C=C3)=C1] — higher, 89%
- COc1ccc(CCN2CCC(NCc3cccc(N(C)C)c3)CC2)cc1 [MMV011511, COc1ccc(CCN2CCC(CC2)NCc3cccc(c3)N(C)C)cc1] — higher, 66%
- NCC(=O)N1CCn2c(nc(-c3ccccc3)c2Nc2ccc3c(c2)OCO3)C1 [MMV011691, NCC(=O)N1CCn2c(C1)nc(c2Nc3ccc4OCOc4c3)c5ccccc5] — higher, 120%
- FC(F)(F)c1cnc(Sc2nnc(-c3ccncc3)o2)c(Cl)c1 [MMV011765, FC(F)(F)c1cnc(Sc2oc(nn2)c3ccncc3)c(Cl)c1] — higher, 85%
- Cc1ccc(NC(=O)c2nc[nH]c2C(=O)Nc2nc3ccccc3[nH]2)c(C)c1 [MMV011903, Cc1ccc(NC(=O)c2nc[nH]c2C(=O)Nc3nc4ccccc4[nH]3)c(C)c1] — lower, 10%
- Cc1nc2ccccn2c1C(=O)NCc1ccc(Cl)cc1 [MMV012074, Cc1nc2ccccn2c1C(=O)NCc3ccc(Cl)cc3] — higher, 102%
- Cc1cc(Nc2ccncc2)n2nc(C)c(-c3ccccc3Cl)c2n1 [MMV016136, Cc1cc(Nc2ccncc2)n3nc(C)c(c4ccccc4Cl)c3n1] — higher, 113%
- Cc1ccc(-c2cc(C(=O)Nc3cccnc3)c3cc(Br)ccc3n2)cc1 [MMV016838, Cc1ccc(cc1)-c1cc(c2cc(ccc2n1)Br)C(=O)Nc1cccnc1] — higher, 87%
- Cc1cc(C)n2nc(C(=O)Nc3cc(C(F)(F)F)ccc3N3CCOCC3)nc2n1 [MMV019087, Cc1cc(C)n2nc(nc2n1)C(=O)Nc3cc(ccc3N4CCOCC4)C(F)(F)F] — higher, 74%
- COc1ccc(C2CC(c3cccs3)=NN2C(=O)c2ccco2)cc1OC (centres unmarked) [MMV019234, COc1ccc(cc1OC)C2CC(=NN2C(=O)c3occc3)c4cccs4] — higher, 107%
- CCC(NC(=O)c1ccccc1NC(=O)c1ccc(C)cc1)C(=O)OC (centres unmarked) [MMV019551, CCC(NC(=O)c1ccccc1NC(=O)c2ccc(C)cc2)C(=O)OC] — higher, 97%
- CCN(CC)S(=O)(=O)c1ccc(Cl)c(C(=O)Nc2ccc3nc(C)sc3c2)c1 [MMV019721, CCN(CC)S(=O)(=O)c1ccc(Cl)c(c1)C(=O)Nc2ccc3nc(C)sc3c2] — higher, 62%
- Cc1ccc(S(=O)(=O)N2CCN(C(=O)c3cc(-c4ccccc4)[nH]n3)CC2)cc1 [MMV019742, Cc1ccc(cc1)S(=O)(=O)N2CCN(CC2)C(=O)c3cc([nH]n3)c4ccccc4] — higher, 96%

From PMC6301270 (MedChemComm, 2018)
